Holding throughout (assay type): functional
The target of assay [1] is T1, Sentrin-specific protease 1 (Homo sapiens, UniProt Q9P0U3).
T1 sequence (Q9P0U3 whole entry): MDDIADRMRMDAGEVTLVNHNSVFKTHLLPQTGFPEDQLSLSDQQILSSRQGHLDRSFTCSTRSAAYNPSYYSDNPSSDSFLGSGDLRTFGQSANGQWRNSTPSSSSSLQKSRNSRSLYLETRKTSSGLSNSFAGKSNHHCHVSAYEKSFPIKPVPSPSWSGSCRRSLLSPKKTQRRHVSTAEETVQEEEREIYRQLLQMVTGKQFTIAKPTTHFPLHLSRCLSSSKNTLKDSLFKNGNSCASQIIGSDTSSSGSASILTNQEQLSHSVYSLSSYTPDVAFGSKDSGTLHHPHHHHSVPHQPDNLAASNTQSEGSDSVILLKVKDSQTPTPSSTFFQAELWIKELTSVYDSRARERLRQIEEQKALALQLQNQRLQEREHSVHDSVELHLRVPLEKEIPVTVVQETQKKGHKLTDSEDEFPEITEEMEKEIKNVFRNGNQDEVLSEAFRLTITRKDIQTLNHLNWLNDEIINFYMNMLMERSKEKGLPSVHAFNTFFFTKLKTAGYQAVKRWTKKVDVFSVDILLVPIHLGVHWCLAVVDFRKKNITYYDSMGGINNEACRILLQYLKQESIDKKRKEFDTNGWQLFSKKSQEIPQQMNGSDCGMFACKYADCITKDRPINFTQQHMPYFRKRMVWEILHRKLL
The experiment in a line: SENP1 catalytic domain blockers, concentration series – biochemical, kinetic FRET, dose response (AID 651697). The conditions noted are these: read-out: IC50_Mean.

The target of assay [2] is T1, Sentrin-specific protease 1. Description: Dose response confirmation of small molecule inhibitors of the catalytic domain of the SUMO protease, SENP1 in a FRET assay. The conditions noted are these: read-out: IC50_Mean.
In assay [3] the target is T2, Sentrin-specific protease 8 (Homo sapiens, UniProt Q96LD8).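 Also: luminescence read-out of SENP8 inhibition, dose-response confirmation following an ultra-high-throughput screen.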
T2 sequence (Q96LD8 whole entry): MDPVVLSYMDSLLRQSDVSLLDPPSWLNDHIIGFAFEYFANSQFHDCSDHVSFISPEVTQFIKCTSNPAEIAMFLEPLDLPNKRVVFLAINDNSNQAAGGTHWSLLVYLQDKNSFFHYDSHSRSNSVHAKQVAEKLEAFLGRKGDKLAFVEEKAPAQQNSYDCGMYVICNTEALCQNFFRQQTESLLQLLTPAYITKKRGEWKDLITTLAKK

Assay [4] has as its target T3, Sentrin-specific protease 6 (Homo sapiens, UniProt Q9GZR1).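 Also: Luminescence-based dose-response confirmatory assay of SENP6 inhibition, following up an ultra-high-throughput screen.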
T3 sequence (Q9GZR1 whole entry): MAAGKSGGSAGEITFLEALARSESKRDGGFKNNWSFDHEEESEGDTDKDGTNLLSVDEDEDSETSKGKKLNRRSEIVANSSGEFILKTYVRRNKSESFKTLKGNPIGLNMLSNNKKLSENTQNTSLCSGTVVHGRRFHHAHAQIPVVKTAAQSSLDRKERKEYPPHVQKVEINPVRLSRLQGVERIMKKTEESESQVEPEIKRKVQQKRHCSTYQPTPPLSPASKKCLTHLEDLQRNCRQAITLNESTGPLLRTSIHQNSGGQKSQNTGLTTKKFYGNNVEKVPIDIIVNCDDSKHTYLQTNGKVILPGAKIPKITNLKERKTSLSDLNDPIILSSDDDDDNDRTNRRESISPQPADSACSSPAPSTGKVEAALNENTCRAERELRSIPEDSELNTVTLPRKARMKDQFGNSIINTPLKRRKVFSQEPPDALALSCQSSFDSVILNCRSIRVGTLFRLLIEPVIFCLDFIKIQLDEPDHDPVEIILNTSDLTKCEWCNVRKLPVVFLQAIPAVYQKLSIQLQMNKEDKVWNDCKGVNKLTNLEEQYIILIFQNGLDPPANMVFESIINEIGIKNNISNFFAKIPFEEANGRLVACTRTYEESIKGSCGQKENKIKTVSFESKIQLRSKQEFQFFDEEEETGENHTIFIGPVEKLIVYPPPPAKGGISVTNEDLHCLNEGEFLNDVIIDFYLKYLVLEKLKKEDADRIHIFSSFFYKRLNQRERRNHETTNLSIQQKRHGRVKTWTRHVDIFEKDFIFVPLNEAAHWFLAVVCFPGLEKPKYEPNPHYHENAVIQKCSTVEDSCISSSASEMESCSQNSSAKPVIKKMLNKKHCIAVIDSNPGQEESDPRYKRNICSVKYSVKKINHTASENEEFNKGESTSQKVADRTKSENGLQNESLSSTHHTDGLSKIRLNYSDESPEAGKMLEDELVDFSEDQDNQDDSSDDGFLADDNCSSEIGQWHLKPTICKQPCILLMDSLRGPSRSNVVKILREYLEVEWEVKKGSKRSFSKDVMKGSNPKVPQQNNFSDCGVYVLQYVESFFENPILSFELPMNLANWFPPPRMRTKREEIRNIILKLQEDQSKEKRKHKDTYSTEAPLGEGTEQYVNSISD

Assay [5] deals with T4, Sentrin-specific protease 7 (Homo sapiens, UniProt Q9BQF6).
T4 sequence (Q9BQF6 whole entry): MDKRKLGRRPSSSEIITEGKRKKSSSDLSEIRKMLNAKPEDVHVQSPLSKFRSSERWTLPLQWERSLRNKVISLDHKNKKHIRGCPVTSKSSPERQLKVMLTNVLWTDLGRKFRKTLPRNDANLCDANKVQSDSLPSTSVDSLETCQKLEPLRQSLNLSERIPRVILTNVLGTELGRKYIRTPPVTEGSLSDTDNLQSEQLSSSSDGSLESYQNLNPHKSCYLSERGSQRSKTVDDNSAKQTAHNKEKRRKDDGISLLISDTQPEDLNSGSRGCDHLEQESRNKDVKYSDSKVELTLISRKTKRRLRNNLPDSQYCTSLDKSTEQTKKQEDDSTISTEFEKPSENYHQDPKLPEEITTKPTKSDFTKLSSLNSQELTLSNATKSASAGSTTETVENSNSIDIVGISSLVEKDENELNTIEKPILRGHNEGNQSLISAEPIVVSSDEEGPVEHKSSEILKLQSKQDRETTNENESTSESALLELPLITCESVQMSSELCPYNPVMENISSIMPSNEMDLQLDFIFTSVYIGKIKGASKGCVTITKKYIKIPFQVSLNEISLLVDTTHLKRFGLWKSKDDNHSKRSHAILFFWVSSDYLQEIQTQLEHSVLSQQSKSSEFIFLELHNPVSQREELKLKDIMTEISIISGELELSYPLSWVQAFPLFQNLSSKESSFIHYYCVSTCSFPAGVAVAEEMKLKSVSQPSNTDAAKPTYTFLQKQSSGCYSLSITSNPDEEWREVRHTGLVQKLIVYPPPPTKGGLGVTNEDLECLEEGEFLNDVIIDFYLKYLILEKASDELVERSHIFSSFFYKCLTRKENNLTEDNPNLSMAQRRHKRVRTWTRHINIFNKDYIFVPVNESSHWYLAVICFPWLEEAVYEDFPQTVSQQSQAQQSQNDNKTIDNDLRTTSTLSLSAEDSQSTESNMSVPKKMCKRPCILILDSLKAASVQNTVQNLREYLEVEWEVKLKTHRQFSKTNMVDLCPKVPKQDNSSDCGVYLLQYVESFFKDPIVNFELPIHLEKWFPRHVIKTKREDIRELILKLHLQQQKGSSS

The next assay has as its target T5, Caspase-3 (Homo sapiens, UniProt P42574).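 Also: Dose-response selectivity test against caspase-3 for candidate inhibitors of sentrin-specific proteases (SENPs).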
T5 sequence (P42574 whole entry): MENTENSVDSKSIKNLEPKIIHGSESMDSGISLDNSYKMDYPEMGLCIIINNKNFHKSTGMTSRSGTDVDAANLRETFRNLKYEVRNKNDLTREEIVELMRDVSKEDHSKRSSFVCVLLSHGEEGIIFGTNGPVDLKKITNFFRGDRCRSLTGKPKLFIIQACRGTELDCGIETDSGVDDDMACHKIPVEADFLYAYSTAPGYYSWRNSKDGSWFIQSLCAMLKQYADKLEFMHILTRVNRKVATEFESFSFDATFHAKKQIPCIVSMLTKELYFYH

Another assay concerns the target Protein Wnt-3a (Mus musculus, UniProt P27467). Description: antagonism of Wnt3a pathway luciferase reporter – Wnt-LIGHT cells, luminescence, selectivity assay for Gli-SUFU antagonist project, dose response (AID 651570).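 Also: Wnt-LIGHT reporter cells stimulated with conditioned medium from Wnt3a-producing cells.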 Particulars: read-out: IC50_Mean.
Another assay has as its target T6, Cysteine protease ATG4B (Homo sapiens, UniProt Q9Y4P1).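 Also: Fluorescence-based dose-response confirmation assay measuring inhibition of ATG4B activity.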
T6 sequence (Q9Y4P1 whole entry): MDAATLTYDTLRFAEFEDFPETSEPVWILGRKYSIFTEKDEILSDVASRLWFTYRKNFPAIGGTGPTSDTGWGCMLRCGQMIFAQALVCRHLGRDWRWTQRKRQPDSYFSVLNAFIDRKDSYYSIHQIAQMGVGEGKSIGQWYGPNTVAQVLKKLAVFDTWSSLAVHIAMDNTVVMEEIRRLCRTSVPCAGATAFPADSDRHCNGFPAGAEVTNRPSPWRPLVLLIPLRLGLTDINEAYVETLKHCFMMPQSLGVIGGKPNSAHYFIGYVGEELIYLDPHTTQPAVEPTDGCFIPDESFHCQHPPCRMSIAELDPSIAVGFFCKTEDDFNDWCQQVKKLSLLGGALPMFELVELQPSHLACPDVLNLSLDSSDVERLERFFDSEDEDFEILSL

The target in the next assay is Phospholipase A2 (Homo sapiens, UniProt P04054).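 Also: confirmatory dose-response counterscreen on phospholipase A2, testing hits that came from an ultra-high-throughput screen for ATG4B inhibitors.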
In a further assay the test system is H4. Description: Luminescence Cell-Based Dose Response HTS to Identify Activators of 5'UTR Stem-Loop Driven Prion Protein mRNA Translation in H4 Neuroglioblastoma Cells. [Related pubchem assays: 1829 (Project Summary), 1814 (Primary HTS)]. Particulars: Homo sapiens.
Assay [6] in a line: Luminescence Cell-Based Dose Response HTS to Identify Activators of Luciferase Translation or Activity in H4 […] Cells. [Related pubchem assays: 1829 (Project Summary), 1814 (Primary HTS)].

Each structure is given as a SMILES string. Active and inactive are the calls of the source.

Protein Wnt-3a, sequence (P27467 whole entry): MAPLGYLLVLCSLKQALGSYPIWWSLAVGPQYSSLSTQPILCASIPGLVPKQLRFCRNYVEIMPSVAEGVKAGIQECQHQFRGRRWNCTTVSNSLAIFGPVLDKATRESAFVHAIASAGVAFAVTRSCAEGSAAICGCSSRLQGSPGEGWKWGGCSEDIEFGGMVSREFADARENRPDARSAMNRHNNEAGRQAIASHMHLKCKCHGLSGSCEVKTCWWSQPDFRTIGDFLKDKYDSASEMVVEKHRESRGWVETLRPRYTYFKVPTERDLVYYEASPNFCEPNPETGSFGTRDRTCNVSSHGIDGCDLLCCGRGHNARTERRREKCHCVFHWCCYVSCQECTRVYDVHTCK
Phospholipase A2, sequence (P04054 whole entry): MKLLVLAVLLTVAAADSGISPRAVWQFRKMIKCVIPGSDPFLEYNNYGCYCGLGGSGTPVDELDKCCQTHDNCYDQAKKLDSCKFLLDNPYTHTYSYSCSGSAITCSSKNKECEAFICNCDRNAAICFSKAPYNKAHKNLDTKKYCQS

Turning to `Cc1ccc2cc3c(N)c(C(=O)N4CCOCC4)sc3nc2c1`, the values for the IC50 in assay [1] and in assay [2] were 35.9 µM (inactive) and 30.6 µM (inactive), respectively.

Regarding `CCOc1ccc2nc(NC(=O)CSc3cnn[nH]3)sc2c1`, the IC50 in assay [3] was 44.1 µM (active); in assay [4], 32.8 µM (active); in [5], 11.7 µM (active); at Caspase-3, 16.3 µM (active).

With `Clc1ccc(-c2c[n+](-c3ccccc3)c3n2CCS3)cc1`, the IC50 at Protein Wnt-3a is 22.5 µM (inactive).

For the molecule `CC/C=C\C/C=C\C/C=C\CCCCCCCC(=O)O` [LINOLENIC ACID], the IC50 at Cysteine protease ATG4B is 15.3 µM (active); at Phospholipase A2 it was 22.3 µM (inactive).

With `Clc1nnc(N/N=C/c2ccccc2)c2ccccc12`, the EC50 was 5.27 µM (active) in the assay on H4 and 0.694 µM (active) in assay [6]. The IC50 in [3] was 8.2 µM (active); in assay [4] it was 5.57 µM (active); in assay [5], 2.83 µM (active); on Caspase-3, 6.38 µM (active).

One may read the EC50 as the midpoint of the concentration-response curve.
